In patent publication US20200171063A1, “Use Of Cholesterol For Promoting Survival And Proliferation Of Primary Medulloblastoma Cells” (Institute For Cancer Research d/b/a The Research Institute …, priority 2017, published 2020):

Columns and labels:
[1] = system: Hh signaling (Gli1 protein expression) in NIH3T3 cells; assay: Western blot of Gli1 protein in NIH3T3 cells upon Hh treatment; format: cell-based
Description: (§1) Having observed that MB cell proliferation was compromised after cholesterol deficiency, it was postulated that cholesterol may promote Hh pathway activation. Western blotting: Cells and tissues were lysed in RIPA buffer (Thermo) supplemented with protease (Roche) and phosphatase (Thermo) inhibitors cocktail. Total protein lysates were separated in 8% SDS-PAGE and transferred on PVDF membrane. Membranes were probed with antibodies against GLI1 (Cell Signaling, 1:1000), NSDHL (Proteintech, 1:1000), Ptch1 (Novus Biologicals, 1:1000), GAPDH (Sigma-Aldrich, 1:1000). Western Blot signals were detected with SuperSignal West Pico Substrate and exposed on films.
MB cells isolated from Ptch1^+/− mice were treated with Simvastatin with and without addition of WSC. At 48 hours after the treatment, cells were harvested to measure Hh signaling through examining Gli1 expression by Western blotting. To further examine the requirement of cholesterol in Hh signal transduction, NIH3T3 cells that have all components involved in Hh signaling were utilized.
FIG. 4 (panels C and D) show Western blot analysis of GLI1 protein expression in Ptcfl/fl (see, FIG. 4, panel C) and SmoM2 MEFs (see, FIG. 4, panel D) following CreYFP carrying lentivirus infection and subsequent simvastatin, triparanol and water soluble cholesterol treatment for 48 hours in vitro. […] GAPDH was used as a loading control. […]

[2] = system: Hh signaling (Gli1 expression) in Ptch1-deficient MEFs; assay: Western blot of Gli1 protein in Ptch1-deficient MEFs (Ptch1fl/fl + Cre lentivirus); format: cell-based, mouse
Description: as §1
(§2) Primary mouse embryonic fibroblasts (MEFs) from Ptch1fl/fl mice carrying a proportion of Ptch1 gene flanked by loxp sites (Ellis et al., Genesis, 2003, 36, 158-161), or SmoM2 mice expressing a constitutively activated form of Smo upon Cre recombination (Jeong et al., Genes & Develop., 2004, 18, 937-951) were generated. MEFs were then infected with a lentivirus carrying Cre recombinase to activate Hh signaling, or with an empty vector as a control. At 48 hours after the infection, MEFs were harvested to examine Gli1 protein expression by Western blotting. […]

[3] = system: Hh signaling (Gli1 expression) in MB cells isolated from Ptch1+/− mice; assay: Western blot of Gli1 protein expression in Ptc+/− MB cells; format: cell-based, mouse
Description: as §1, with “Western blotting: Cells and tissues were lysed in RIPA buffer (Thermo) supplemented with protease (Roche) and phosphatase (Thermo) inhibitors cocktail. Total protein lysates were separated in 8% SDS-PAGE and transferred on PVDF membrane. Membranes were probed with antibodies against Gli1 (Cell Signaling, 1:1000) and GAPDH (Sigma-Aldrich, 1:1000). Western Blot signals were detected with SuperSignal West Pico Substrate and exposed on films. […] Having” for “Having”, “films. MB cells isolated from Ptch1^+/− mice were treated with Simvastatin with and without addition of WSC. At 48 hours after the treatment, cells were harvested to measure Hh signaling through examining Gli1 expression by Western blotting. […]” for “films.”

[4] = system: MB cells isolated from Ptch1+/− mice; assay: Ki67 immunocytochemistry of cultured primary MB cells; format: cell-based, mouse
Description: MB cells isolated from Ptch1^+/− mice were cultured with NB-B27 culture medium (lacking cholesterol) in the presence of simvastatin or triparanol at designated concentrations.
Cell culture: Primary mouse medulloblastoma cells were isolated from full-blown mouse-derived tumor as described before (Yang et al., 2008, Cancer Cell, 14, 135-145). Obtained cells were cultured on glass coverslips coated with 0.1 mg/ml poly-D-lysine (Millipore, A-003-E). Cells were pulsed with 10 μM of BrdU (Millipore, 19-160) for 2 hours prior to the material collection time point. […]
Histology and immunohistochemistry: Cultured primary MB cells were fixed with 4% PFA on PBS for 15 minutes, permeabilized, and blocked in 10% normal goat serum on PBST (PBS, 0.1% Triton-X100) for 1 hour at room temperature and stained against Ki67 (Abcam, ab15580, 1:1000), NeuN (Abcam, ab104224, 1:200), Caspase 3 (Cell Signaling, 9662, 1:500), BrdU (Sigma-Aldrich, B-8434, 1:500), mCherry (Abcam, ab167453, 1:500), Zic1 (Generous gift from Dr. Sigal, Dana Farber Research Institute, 1:200), S1000 (Sigma-Aldrich, 1:500), YFP (Life Technologies, 1:500).
Prior to BrdU immunostaining, cells were incubated in pH 5.0 buffer for 30 minutes at 37 C. Secondary antibodies were applied at dilution 1:500 on 10% normal goat serum on PBST for 2 hours at room temperature. Samples were counterstained with DAPI and mounted with Fluoromount-G.
MB cells were isolated from Ptc^+/− mouse and cultured in presence of simvastatin (see, FIG. 2A, panels B-D) or triparanol (see, FIG. 2A, panel E), and water-soluble cholesterol (see, FIG. 2A, panels F-J). After 48 hours in vitro, culture cells were fixed, stained against Ki67 (red), and counterstained with DAPI. […] Significance asterisk key: p value <0.05 (*), p<0.01 (**), p<0.001 (***), p<0.0001 (****).

[5] = system: MB cells; assay: MTT viability assay of MB cells; format: cell-based, mouse; details: after treatment with simvastatin or triparanol
[6] = system: Hh signaling (Gli1 protein expression) in Smo-activated MEFs; assay: Western blot of Gli1 protein in Smo-activated (SmoM2) MEFs; format: cell-based, mouse; details: 48 hours
Description: as §1, §2

[7] = system: Hh signaling (Ptch1 protein expression) in Gli1-overexpressed NIH3T3 cells; assay: Western blot of Ptch1 protein in Gli1-overexpressed NIH3T3 cells; format: cell-based; details: 48 hours
Description: as §1
FIG. 4 (panels C and D) show Western blot analysis of GLI1 protein expression in Ptcfl/fl (see, FIG. 4, panel C) and SmoM2 MEFs (see, FIG. 4, panel D) following CreYFP carrying lentivirus infection and subsequent simvastatin, triparanol and water soluble cholesterol treatment for 48 hours in vitro. […] GAPDH was used as a loading control. […] In the absence of Hh ligand, its receptor Ptch1, tethers pathway effector Smo. Bound to Ptch1, Hh releases Smo, causes activation of Gli1 transcription factor, and leads to transcription of Hh pathway genes (Gli1, Ptch1, etc.). Cholesterol promotes Smo activation during Hh signal transduction. […]

[8] = system: Ptc+/− MB subcutaneous allograft; assay: Ptc+/− MB subcutaneous allograft in CB17/SCID mice; format: in vivo, mouse; details: vismodegib 5 mg/kg/day, per os

**Q.** For `CC(C)CCC[C@@H](C)[C@H]1CC[C@H]2[C@@H]3CC=C4C[C@@H](O)CC[C@]4(C)[C@H]3CC[C@]12C` [WSC, cholesterol], which “Gli1 protein expression after Simvastatin or Triparanol treatment” value ([1]; NIH3T3 cells, exogenous cholesterol added) is on record?
**A.** upregulated

**Q.** And the “restoration of Gli1 expression inhibited by simvastatin or triparanol” value ([2]; addition of exogenous cholesterol)?
**A.** restored

**Q.** What about the “Gli1 expression levels (western blotting)” value ([3]; 15 μM WSC, in vitro for 96 hours) of the same compound?
**A.** rescued Gli1 expression levels

**Q.** And the “Gli1 expression in Simvastatin treated MB cells” value ([3]; addition of exogenous cholesterol, 48 hours)?
**A.** rescued Gli1 expression

**Q.** What about the “tumor cell proliferation over time (Ki67 immunocytochemistry)” value ([4]; 15 μM WSC, 0 to 96 hours time course) of the same compound?
**A.** prolonged tumor cell proliferation

**Q.** What about the “rescue of repressed MB cell proliferation (Ki67)” value ([4]; addition of cholesterol after simvastatin or triparanol treatment, 48 hours) of the same compound?
**A.** significantly rescued

**Q.** What about the “MB cell proliferation in control culture (Ki67)” value ([4]; exogenous cholesterol, control culture without inhibitor) of the same compound?
**A.** enhanced MB cell proliferation

**Q.** Which results are given for `CCN(CC)CCOc1ccc(C(O)(Cc2ccc(Cl)cc2)c2ccc(C)cc2)cc1` (centres unmarked) [triparanol]?
**A.** proliferation of MB cells by MTT viability assay [5]: Repressed proliferation; up-regulation of Gli1 protein expression [6]: not altered; upregulation of Ptch1 protein expression [7]: not altered; Gli1 protein expression ([1]; NIH3T3 cells upon Hh treatment, 48 hours): significantly repressed; Gli1 expression ([2]; 48 hours): dramatically inhibited; percentage of proliferating MB cells (Ki67+) ([4]; 48 hours in culture, NB-B27 medium lacking cholesterol, vs DMSO control): Reduced proliferation

**Q.** Which MB growth [8] does the source give for `CS(=O)(=O)c1ccc(C(=O)Nc2ccc(Cl)c(-c3ccccn3)c2)c(Cl)c1` [vismodegib (GDC0449), vismodegib] here?
**A.** prohibited MB growth
